From patent US10160762B2, “6-alkyl dihydropyrazolopyrimidinone compounds as PDE2 inhibitors” (Merck Sharp & Dohme Corp., priority 2015, dated 2018) come the findings set out here.

The target in the experiment is T1, Rhesus PDE2A3 (Macaca mulatta, UniProt B3VTJ2).
T1 construct: made in house; host or cells: AD293 cells, transient transfection; supernatant of sonicated lysate
T1 sequence (B3VTJ2 1-941): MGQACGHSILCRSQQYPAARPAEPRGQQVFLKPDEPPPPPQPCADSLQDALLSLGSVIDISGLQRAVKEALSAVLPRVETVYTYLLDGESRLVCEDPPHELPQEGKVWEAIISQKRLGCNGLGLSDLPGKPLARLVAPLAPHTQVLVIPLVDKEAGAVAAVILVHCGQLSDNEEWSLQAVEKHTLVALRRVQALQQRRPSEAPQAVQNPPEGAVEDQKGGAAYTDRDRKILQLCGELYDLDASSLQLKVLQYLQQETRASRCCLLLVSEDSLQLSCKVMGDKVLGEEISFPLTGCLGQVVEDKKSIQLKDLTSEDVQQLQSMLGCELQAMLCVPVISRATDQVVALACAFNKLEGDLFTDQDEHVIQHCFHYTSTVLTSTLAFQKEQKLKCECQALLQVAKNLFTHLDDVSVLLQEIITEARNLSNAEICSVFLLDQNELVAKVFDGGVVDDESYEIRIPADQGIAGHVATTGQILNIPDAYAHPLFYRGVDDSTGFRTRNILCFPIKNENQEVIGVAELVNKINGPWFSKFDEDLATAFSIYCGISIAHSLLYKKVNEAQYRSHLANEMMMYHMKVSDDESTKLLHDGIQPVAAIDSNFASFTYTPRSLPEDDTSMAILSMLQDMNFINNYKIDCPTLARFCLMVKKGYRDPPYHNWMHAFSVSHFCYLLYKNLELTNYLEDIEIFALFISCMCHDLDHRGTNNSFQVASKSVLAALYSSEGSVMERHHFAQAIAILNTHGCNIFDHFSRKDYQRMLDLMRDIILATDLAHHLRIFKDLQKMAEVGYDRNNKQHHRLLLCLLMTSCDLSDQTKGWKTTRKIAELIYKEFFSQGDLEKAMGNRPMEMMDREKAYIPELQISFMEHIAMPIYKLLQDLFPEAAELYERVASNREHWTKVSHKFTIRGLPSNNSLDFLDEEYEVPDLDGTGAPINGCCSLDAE
Description: PDE2 fluorescence polarization (IMAP FP) inhibition assay, rhesus PDE2A3. Format: biochemical, rhesus macaque. The procedure: The activity of the compounds in accordance with the present invention as PDE2 inhibitors may be readily determined using a fluorescence polarization (FP) methodology (Huang, W., et al., J. Biomol Screen, 2002, 7: 215).
The PDE2 inhibitory activity of the compounds of the present invention was determined in accordance with the following experimental method. Rhesus PDE2A3 was amplified from rhesus macaque brain cDNA (Biochain Institute, Hayward, Calif.) using primers based on human PDE2A sequence (accession NM_002599.3) where the forward primer containing a Kozak consensus was 5′-[…]-3′ and the reverse primer was 5′-[…]-3′. Amplification with Easy-A High-Fidelity PCR cloning enzyme (Stratagene, La Jolla, Calif.) was 95° C. for 2 minutes followed by thirty three cycles of 95° C. for 40 seconds, 52° C. for 30 seconds, and 72° C. for 2 minutes 48 seconds. Final extension was 72° C. for 7 minutes. The PCR product was TA cloned into pcDNA3.3-TOPO (Invitrogen, Carlsbad, Calif.) according to standard protocol. A consensus sequence was developed from multiple clones and then deposited into GenBank (EU812167). AD293 cells (Stratagene, La Jolla, Calif.) with 70-80% confluency were transiently transfected with rhesus PDE2A3/pcDNA3.3-TOPO using Lipofectamine 2000 according to manufacturer specifications (Invitrogen, Carlsbad, Calif.). Cells were harvested 48 hours post-transfection and lysed by sonication (setting 3, 10×5 sec pulses) in a buffer containing 20 mM HEPES pH 7.4, 1 mM EDTA and Complete Protease Inhibitor Cocktail Tablets (Roche, Indianapolis, Ind.). Lysate was collected by centrifugation at 75,000×g for 20 minutes at 4° C. and supernatant utilized for evaluation of PDE2 activity. The fluorescence polarization assay for cyclic nucleotide phosphodiesterases was performed using an IMAP® FP kit supplied by Molecular Devices, Sunnyvale, Calif. (product #R8139). […] Assays were performed at room temperature in 384-well microtiter plates with an incubation volume of 20.2 μL. Solutions of test compounds were prepared in DMSO and serially diluted with DMSO to yield 8 μL of each of 10 solutions differing by 3-fold in concentration, at 32 serial dilutions per plate. […] 0% of inhibition is determined by using DMSO (1% final concentrations).
A Labcyte Echo 555 (Labcyte, Sunnyvale, Calif.) is used to dispense 200 nL from each well of the titration plate to the 384 well assay plate. Ten microliters of a solution of enzyme (1/2000 final dilution from aliquots; sufficient to produce 20% substrate conversion) was added to the assay plate. Next 10 uL of a separate solution of the substrate FAM-labeled cAMP (50 nM final concentration product # R7506 from Molecular Devices) and the activator cGMP (1 uM final concentration), prepared in the assay buffer (10 mM Tris HCl, pH 7.2, 10 mM MgCl2, 0.05% NaN3 0.01% Tween-20, and 1 mM DTT) was added to the assay plate and shaken to mix. The reaction is allowed to proceed at room temperature for 60 minutes. A binding solution is then made from the kit components, comprised of 80% Solution A, 20% Solution B and binding reagent at a volume of 1/600 the total binding solution. The enzymatic reaction is stopped by addition of 60 μL of the binding solution to each well of the assay plates and the plates are sealed and shaken for 30 seconds. The plate was incubated at room temperature for at least one hour prior to determining the fluorescence polarization (FP). The parallel and perpendicular fluorescence of each well of the plate was measured using a Tecan Genios Pro plate reader (Tecan, Switzerland) or Perkin Elmer EnVision™ plate reader (Waltham, Mass.). Fluorescence polarization (mP) was calculated from the parallel (S) and perpendicular (P) fluorescence of each sample well and the analogous values for the median control well, containing only substrate (So and Po), using the following equation: Polarization(mP)=1000*(S/So−P/Po)/(S/So+P/Po).
On the technique in general: In fluorescence polarisation assays a small probe gives low polarisation when free and higher when bound to something large.

[1] abbreviates: Lab B, read-out: Rhesus PDE2 Ki (nM) Lab B.
Where [2] appears, read: Lab A, read-out: Rhesus PDE2 Ki (nM) Lab A.

Each structure is given as a SMILES string. Where two headings read alike, the source gives them in different places.

One may read the Ki as the equilibrium dissociation constant of an inhibitor or competing ligand from its target.

For the compound `Cc1nc2c(c(C)nn2C(C)C(C)(O)c2ccc(C(F)(F)F)cc2)c(=O)[nH]1` (centres unmarked) [Example 333, 1-(3-Hydroxy-3-(4-(trifluoromethyl)phenyl)butan-2-yl)-3,6-dimethyl-1H-pyrazolo[3,4-d]pyrimidin-4(5H)-one], the inhibition constant Ki under setting [1] was roughly 29000 nM. Take `Cc1nc2c(c(CS(C)(=O)=O)nn2C(C)c2ccc(C(F)(F)F)cc2)c(=O)[nH]1` (single isomer, unassigned) [Example 272]: the Ki under setting [1] was found to be 1210 nM. With `Cc1nc2c(c(CO)nn2C(c2ccc(C(F)(F)F)c(F)c2)C(C)(C)C)c(=O)[nH]1` (single isomer, unassigned) [Example 128, (R)- or (S)-1-(1-(3-Fluoro-4-(trifluoromethyl)phenyl)-2,2-dimethylpropyl)-3-(hydroxyl-methyl)-6-methyl-1H-pyrazolo-[3,4-d]pyrimidin-4(5H)-one], the Ki under setting [1] was 413 nM. For `Cc1nn(C(C)c2ccc(C(F)(F)F)cc2)c2nc(C3CCOCC3)[nH]c(=O)c12` (centres unmarked) [Example 55, 3-Methyl-6-(tetrahydro-2H-pyran-4-yl)-1-{1-[4-(trifluoromethyl)phenyl]ethyl}-1,5-dihydro-4H-pyrazolo[3,4-d]pyrimidin-4-one], the Ki under setting [2] came to 421 nM. Consider `Cc1nn(C(C)c2ccc(C(F)(F)F)cc2)c2nc(C3CCOC3)[nH]c(=O)c12` (centres unmarked) [Example 33, 3-Methyl-6-(tetrahydrofuran-3-yl)-1-(1-(4-(trifluoromethyl)phenyl)ethyl)-1H-pyrazolo[3,4-d]pyrimidin-4(5H)-one], for which the Ki reads like this: under setting [2], 386 nM; under setting [1], 531 nM. As for `Cc1nc2c(c(CC(F)(F)F)nn2C(c2ccc(C(F)(F)F)cc2)C2(C)CC2)c(=O)[nH]1` (single isomer, unassigned) [Example 58, (R)- or (S)-6-Methyl-1-((1-methylcyclopropyl)(4-(trifluoromethyl)phenyl)methyl)-3-(2,2,2-trifluoroethyl)-1H-pyrazolo[3,4-d]pyrimidin-4(5H)-one], the Ki under setting [1] turned out to be 1080 nM. Consider `Cc1nc2c(c(CF)nn2C(c2ccc(C(F)(F)F)cc2)C(C)(C)C)c(=O)[nH]1` (single isomer, unassigned) [Example 233, (R)- or (S)-1-(2,2-Dimethyl-1-(4-(trifluoromethyl)phenyl)propyl)-3-(fluoromethyl)-6-methyl-1H-pyrazolo[3,4-d]pyrimidin-4(5H)-one], for which the Ki under setting [1] came to 678 nM. As to `Cc1nc2c(c(C)nn2C(CCCc2ccccc2)c2sc(C)nc2C)c(=O)[nH]1` (centres unmarked) [Example 339, 1-[1-(2,4-dimethyl-1,3-thiazol-5-yl)-4-phenylbutyl]-3,6-dimethyl-1,5-dihydro-4H-pyrazolo[3,4-d]pyrimidin-4-one], the Ki under setting [2] is 292 nM.

For the compound `CC(=O)OCc1nn(C(C)c2ccc(C(F)(F)F)cc2)c2nc(C)[nH]c(=O)c12` (centres unmarked) [Example 319, (6-Methyl-4-oxo-1-(1-(4-(trifluoromethyl)phenyl)ethyl)-4,5-dihydro-1H-pyrazolo[3,4-d]pyrimidin-3-yl)methyl acetate], under setting [1], the Ki was found to be 283 nM. On to `Cc1nc2c(c(C)nn2C(C)CN(C)c2ccc(C(F)(F)F)cc2)c(=O)[nH]1` (centres unmarked) [Example 331, 3,6-Dimethyl-1-(1-(methyl(4-(trifluoromethyl)phenyl)amino)propan-2-yl)-1H-pyrazolo[3,4-d]pyrimidin-4(5H)-one], for which the Ki under setting [1] stood at 1440 nM. As for `Cc1nc2c(c(CO)nn2C(c2ccc(C(F)(F)F)cc2)C2(C)CC2)c(=O)[nH]1` (single isomer, unassigned) [Example 25, (S)- or (R)-3-(Hydroxymethyl)-6-methyl-1-((1-methylcyclopropyl)(4-(trifluoromethyl)phenyl)methyl)-1H-pyrazolo[3,4-d]pyrimidin-4(5H)-one], under setting [1], the inhibitory constant (Ki) came to 160 nM. Take `COCCc1nc2c(c(C)nn2C(C)c2ccc(C(F)(F)F)cc2)c(=O)[nH]1` (centres unmarked) [Example 34, 6-(2-Methoxyethyl)-3-methyl-1-(1-(4-(trifluoromethyl)phenyl)ethyl)-1H-pyrazolo[3,4-d]pyrimidin-4(5H)-one]: the Ki under setting [2] amounted to 267 nM. Regarding `Cc1nc2c(c(CCO)nn2C(C)c2ccc(C(F)(F)F)cc2)c(=O)[nH]1` (single isomer, unassigned) [Example 249], the Ki under setting [1] was found to be 245 nM. On the same count and under the same terms, the same measure for `Cc1nc2c(c(CCN)nn2C(C)c2ccc(C(F)(F)F)cc2)c(=O)[nH]1` (centres unmarked) [Example 282, 3-(2-Aminoethyl)-6-methyl-1-(1-(4-(trifluoromethyl)phenyl)ethyl)-1H-pyrazolo[3,4-d]pyrimidin-4(5H)-one]: greater than 2970 nM.

With `Cc1nc2c(c(CO)nn2C(c2ccc(C(F)(F)F)c(F)c2)C(C)C)c(=O)[nH]1` (single isomer, unassigned) [Example 86, (R)- or (S)-1-(1-(3-Fluoro-4-(trifluoromethyl)phenyl)-2-methylpropyl)-3-(hydroxymethyl)-6-methyl-1H-pyrazolo[3,4-d]pyrimidin-4(5H)-one], under setting [1], the inhibitory constant (Ki) came out at 436 nM.

As to `CC(c1ccc(C(F)(F)F)cc1)n1nc(CO)c2c(=O)[nH]c(-c3cnn(C)c3)nc21` (racemic) [Example 295, 3-(Hydroxymethyl)-6-(1-methyl-1H-pyrazol-4-yl)-1-{1-[4-(trifluoromethyl)phenyl]ethyl}-1,5-dihydro-4H-pyrazolo[3,4-d]pyrimidin-4-one], the Ki under setting [1] is greater than 2970 nM. Same read-out and setting: then `COc1ccc(Cc2nc3c(c(CF)nn3C(C)c3ccc(C(F)(F)F)cc3)c(=O)[nH]2)cc1` (single isomer, unassigned) [Example 218, (R)- or (S)-3-(Fluoromethyl)-6-(4-methoxybenzyl)-1-(1-(4-(trifluoromethyl)phenyl)ethyl)-1H-pyrazolo[3,4-d]pyrimidin-4(5H)-one], with 107 nM. For `COCc1nc2c(c(CO)nn2C(C)c2ccc(C(F)(F)F)cc2)c(=O)[nH]1` (single isomer, unassigned) [Example 292], the Ki under setting [1] stood at 473 nM. `Cc1nc2c(c(CN)nn2C(C)c2ccc(C(F)(F)F)cc2)c(=O)[nH]1` (single isomer, unassigned) [Example 275]: the Ki under setting [1] came to 987 nM.
